We go through one compound from article PMC9656482, “In Vitro and In Vivo Biological Activity of Ruthenium 1,10-Phenanthroline-5,6-dione Arene Complexes” (International Journal of Molecular Sciences, 2022).

In one series the test system is A2780 cells. The series can be described thus: Trypan blue exclusion method. Format: cell-based, human. The following applies: A2780, 48 h. As to the method:
A2780 cells were exposed for 48 h to the IC50 of JHOR11, and to a concentration 10 times higher and 10 times lower the IC50, and the live (transparent) and dead (blue) cells that remained adherent or in the supernatant were counted (Figure 6). A2780 cells were also incubated with 0.1% (v/v) DMSO as a vector control, and 0.1 µM doxorubicin as positive control (Supplementary Information, Figure S8).
A2780 cells were seeded on a 24-well culture plate at a density of 37,500 cells/well. After 24 h to assure cell adherence, the medium was replaced by fresh RPMI supplemented with 0.1% (v/v) DMSO, 0.1 µM Doxorubicin or JHOR11 complex in three different concentrations: 1/10 IC50, IC50 or 10 × IC50. After 8 h, 24 h or 48 h incubation, the supernatant was removed and mixed with trypan blue (Thermo Fisher Scientific) to a final concentration 0.1% (w/v). In parallel, cells were detached from the well, centrifuged at 500× g and pellet was resuspended in 0.1% (w/v) Trypan blue. The number of viable cells and cells with compromised membrane (stained with blue) in both fractions were counted in a haemocytometer (Hirschmann, Eberstadt, Germany) and a CXX41 inverted microscope (Olympus, Tokyo, Japan).

Series [1] relates to HCT116 colorectal carcinoma cell line. Briefly: MTS antiproliferative assay, HCT116. Format: cell-based, human. For orientation: Tetrazolium dyes change colour on reduction, which living cells bring about.
Experimental: (§1) The cytotoxic potential of the complexes was evaluated by assessing their viability using the 3-(4,5-dimethylthiazol-2-yl)-5-(3-carboxymethoxyphenyl)-2-(4-sulfophenyl)-2H tetrazolium, inner salt (MTS) colorimetric assay in three tumor cell lines—ovarian carcinoma, A2780, colorectal carcinoma, HCT116, and colorectal carcinoma resistant to doxorubicin, HCT116-Dox and in normal human primary dermal fibroblasts (Figure 1 and Figure S7).
(§2) Normal dermal human fibroblasts, colorectal carcinoma cell line HCT116 and ovarian carcinoma cell line A2780 were acquired from ATCC (Manassas, VA, USA). […] Fibroblasts and HCT116 cells were cultured in Dulbecco’s modified Eagle medium (DMEM, Thermo Fisher Scientific) and A2780 cell line was cultured on Roswell Park Memorial institute 1640 (RPMI-1640, Thermo Fisher Scientific). Both media were supplemented with 10% (v/v) fetal bovine serum (FBS, Thermo Fisher Scientific) and a mixture of 100 U/mL penicillin and 100 mg/mL streptomycin. The supplemented media are referred to from this point on as DMEM or RPMI for simplicity. […] All experiments underwent at 37 °C, 5% (v/v) CO2 and 99% (v/v) humidity in the dark.
(§3) Cells were seeded in a 96-well plate in a density of 7500 cells/well, and after 24 h was submitted to a concentration range between 0.1–50 µM of complexes JHOR10 and JHOR11. DMSO with a 0.1% (v/v) concentration was used as vector control and cisplatin was used as positive control in all replicates. After 48 h incubation, cellular viability was inferred with the Cell Titer 96® Aqueous One solution cell proliferation assay (Promega, Madison, WI, USA) according to the manufacturer’s instructions and procedures previously described [18, 40]. The absorbance of the produced Formazan was quantified with a Tecan microplate reader, Infinite M200 (Tecan, Mannedorf, Switzerland) and the analysis of the dose–response curves to determine the relative IC50 was performed with GraphPad Prism 8.2.1 software (GraphPad Software, La Jolla, CA, USA).
The next series has as its system chicken embryo. Briefly: Ex ovo chorioallantoic membrane (CAM) assay.
In series [2] the test system is A2780 ovarian carcinoma cell line. Briefly: MTS antiproliferative assay, A2780. It counts as cell-based, human.
Experimental: as §1, §2, §3
A short description of series [3]: Stability in DMSO-d6-D2O solution by 1H NMR. As to conditions: DMSO-d6-D2O 3:7 (v/v), 110 mM chloride, 48 h. It counts as physicochemical. As to the method: To evaluate the stability of complexes in a cell culture medium, powdered complexes were first solubilized in DMSO and then immediately in DMEM, in order to guarantee that no more than 0.1% (v/v) DMSO was present in the medium. […] In addition, the stability of the complexes in solution was investigated by ^1H NMR spectroscopy. The ruthenium complexes were dissolved in DMSO-d6-D2O, in a 3:7 ratio (v/v) with a 110 mM chloride concentration, and the ^1H NMR spectra was recorded immediately and after 48 h. […] This observation is in agreement with the M–Cl aquation processes described for several metallic compounds, such as cisplatin [23]. After 48 h, the ^1H NMR spectrum of JHOR10 was unchanged.
The stability of complexes was evaluated in DMEM (Dulbecco’s modified Eagle’s medium). Powdered complexes JHOR10 and JHOR11 were solubilized in DMSO and then immediately diluted in DMEM without phenol red (Thermo Fisher Scientific, Waltham, MA, USA) to a final concentration of 100 µM, assuring that the final concentration of DMSO was not higher than 0.1% (v/v). The UV-visible spectrum was measured after an incubation at 37 °C for 24 or 48 h (DMEM) in a wavelength range between 260 and 800 nm, using a quartz cuvette with 1 cm path length. A total of 2 mg of each compound was dissolved in DMSOd6-D2O 3:7 (v/v) 110 mM chloride concentration (NaCl), and the ^1H NMR were recorded at 0 h and 48 h on a Bruker Avance III 400 MHz.

For series [4], the system named is HCT116 cells injected into zebrafish embryos. The series can be described thus: Zebrafish embryo xenograft assay. Format: in vivo. As to conditions: 80 μM in embryo water from 1 dpi, read at 4 dpi. As to the method: HCT116 human colorectal cancer cell line was incubated in standard conditions (37 °C and 5% CO2) until a confluence of 80% was reached. Afterwards, the cells were concentrated and labelled with DiI and injected into the circulation (Duct of Cuvier) of 48 hpf zebrafish embryos to assay the proliferation in vivo of the cells exposed to JHOR11 (80 μM). JHOR11 was dissolved in the embryo water at 1 dpi (days post-injection) for the embryos to recover from the injection and the establishment of the cancer cells in the caudal hematopoietic tissue (CHT), and was maintained until the end of the experiment at 4 dpi. Imaging of the embryos was performed at 1 dpi and 4 dpi to quantify the fluorescence and area of the cells in the tail of the embryos, where cells invade and grow, and measure their proliferation over time to assess the inhibitory effect of JHOR11 over the cells. […]
The images were obtained with an AZ-100 Nikon fluorescence stereomicroscope at two different times ([…]) allowing in vivo monitoring of the proliferating HCT116 cells labelled within the zebrafish embryo. The analysis of the cell progression was carried out using Quantifish Software. This software analyzes each image by measuring its fluorescence above a manually set threshold that produces the integrated intensity of each image as the output. […]

Experimental for chicken embryo: Each chicken embryo was exposed to the IC50 of JHOR11 and 0.1% (v/v) DMSO as vector control and the number of vessels in each treated region was counted at 0 h, and after 24 h and 48 h incubation at 37 °C, as previously described [39].
The CAM assay was performed as previously described [18, 39, 43]. Fertilized eggs with 48 h incubation were opened and stabilized for 24 h in white weighing boats. Two silicone rings were positioned in each embryo and 40 mL IC50 JHOR11 in phosphate-buffered saline (PBS) or 0.1% (v/v) DMSO in PBS, as vector control, were placed in each o-ring. The region delimited by each o-ring was photographed at 0 h, 24 h, 48 h with a digital USB microscope camera (Opti-Tekscope OT-V1). The newly formed veins were counted using ImageJ as previously described [37], and values were presented after normalization with the values obtained for control sample.

For `Cc1ccc(C(C)C)cc1.F[P-](F)(F)(F)(F)F.O=C1C(=O)c2cccnc2-c2ncccc21.[Cl][Ru+]` [JHOR11], the “cells in the supernatant at 1/10 IC50 (Trypan blue)” value in the series on A2780 cells (1/10 IC50) is “exclusively live cells”. In the series on A2780 cells (1/10 IC50, IC50, 10 × IC50), the “cells in the supernatant with increasing concentration (Trypan blue)” value is recorded as “increased percentage of cells in the supernatant”. Also, the IC50 (in general, the concentration at which inhibition is half-maximal) came to 5.5 ± 0.3 µM in series [1] (48 h incubation, MTS, read-out: Relative IC50, HCT116) and 1.2 ± 0.1 µM in series [2] (48 h incubation, MTS, read-out: Relative IC50, A2780). For the same compound, the “selective index in HCT116” value in series [1] (relative to fibroblasts) is 8.1. For the same compound, in the series on chicken embryo (IC50 of JHOR11, 24 h and 48 h, versus DMSO-treated regions), the “newly formed vessels (angiogenesis)” value is reported as “no anti- or pro-angiogenic effects”. Moreover, the “death of chicken embryos” value in the series with chicken embryo (six embryos, 48 h, IC50 of JHOR11) is “did not induce the death”. Moreover, the “selective index in A2780” value in series [2] (relative to fibroblasts) is recorded as 37.4. Besides, the “stability in solution by 1H NMR after 48 h” value in series [3] is “the majority of the complex remained intact”. For the same compound, the “decrease of proliferation of HCT116 cells compared to control” value in series [4] is reported as 45%.
